Patent US6727264B1 (Synaptic Pharmaceutical Corporation, priority 2001, dated 2004)

Target: rat MCH-1 (Rattus norvegicus, UniProt P97639)
Experiment: Radioligand binding assay at cloned rat MCH1 receptor ([3H] Compound A)
Parameters: host or cells: Peak rapid 293 (Peakr293) cells, transient calcium phosphate transfection, membranes
Details: cloned rat MCH1 receptor; 0.08 nM [3H] Compound A; Peakr293 cell membranes; read-out: Ki (nM) rMCH1

Sequence of rat MCH-1 (P97639 whole entry): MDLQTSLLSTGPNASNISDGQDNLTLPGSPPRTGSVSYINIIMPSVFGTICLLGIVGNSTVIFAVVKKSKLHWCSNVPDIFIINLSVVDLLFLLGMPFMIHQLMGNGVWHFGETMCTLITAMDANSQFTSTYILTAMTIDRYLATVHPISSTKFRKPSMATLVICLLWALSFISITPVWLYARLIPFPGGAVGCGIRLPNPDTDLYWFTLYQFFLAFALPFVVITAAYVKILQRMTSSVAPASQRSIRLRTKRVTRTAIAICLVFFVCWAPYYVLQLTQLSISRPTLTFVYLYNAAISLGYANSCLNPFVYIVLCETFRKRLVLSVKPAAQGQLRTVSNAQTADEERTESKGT

Row | SMILES | Ki
1 | COc1ccccc1-n1ccc2cc(CN3CCC(c4cccc(NC(=O)C(C)C)c4)CC3)ccc21 [Example 841] | 25 nM
2 | CC(C)C(=O)Nc1cccc(C2CCN(Cc3ccc4c(ccn4-c4cccc(Cl)c4)c3)CC2)c1 [Example 842] | 15.8 nM
3 | COC(=O)c1ccccc1-n1ccc2cc(CN3CCC(c4cccc(NC(=O)C(C)C)c4)CC3)ccc21 [Example 843, METHYL 2-[5-({4-[3-(ISOBUTYRYLAMINO)PHENYL]-1-PIPERIDINYL}METHYL)-1H-INDOL-1-YL]BENZOATE] | 15.5 nM
4 | CC(C)C(=O)Nc1cccc(C2CCN(CCCn3ccc4ccccc43)CC2)c1 [Example 844] | 37.8 nM
5 | CC(C)C(=O)Nc1cccc(C2CCN(Cc3ccc4c(ccn4-c4ccc(C(F)(F)F)cc4)c3)CC2)c1 [Example 845] | 43.1 nM
6 | CC(C)C(=O)Nc1cccc(C2CCN(Cc3ccc4c(ccn4-c4ccccc4-c4ccccc4)c3)CC2)c1 [Example 846] | 18.4 nM
7 | Cc1ccccc1-n1ccc2cc(CN3CCC(c4cccc(NC(=O)C(C)C)c4)CC3)ccc21 [Example 847] | 10.2 nM
8 | Cc1ccc(-n2ccc3cc(CN4CCC(c5cccc(NC(=O)C(C)C)c5)CC4)ccc32)cc1 [Example 848] | 19.1 nM
9 | CC(C)C(=O)Nc1cccc(C2CCN(Cc3ccc4c(ccn4-c4ccccc4Cl)c3)CC2)c1 [Example 849] | 9.4 nM
10 | CC(C)C(=O)Nc1cccc(C2CCN(Cc3ccc4c(ccn4-c4cccc(C(F)(F)F)c4)c3)CC2)c1 [Example 850] | 9.5 nM
11 | CC(C)C(=O)Nc1cccc(C2CCN(Cc3ccc4c(ccn4-c4ccccc4[N+](=O)[O-])c3)CC2)c1 [Example 851] | 27.4 nM
12 | CC(C)C(=O)Nc1cccc(C2CCN(Cc3ccc4c(ccn4-c4ccccc4F)c3)CC2)c1 [Example 852] | 14.5 nM
13 | CC(C)C(=O)Nc1cccc(C2CCN(Cc3ccc4c(ccn4-c4cccc5ccccc45)c3)CC2)c1 [Example 853] | 48 nM
14 | CC(C)C(=O)Nc1cccc(C2CCN(Cc3ccc4c(ccn4-c4cccc(Cl)c4Cl)c3)CC2)c1 [Example 854] | 13.8 nM
15 | CC(C)C(=O)Nc1cccc(C2CCN(Cc3cccc4ccn(-c5cccc(Cl)c5Cl)c34)CC2)c1 [Example 855] | 256 nM
16 | COc1cccc(-n2ccc3c(CN4CCC(c5cccc(NC(=O)C(C)C)c5)CC4)cccc32)c1 [Example 856] | 123 nM
17 | CC(C)C(=O)Nc1cccc(C2CCN(Cc3cccc4c3ccn4-c3cccc(Cl)c3Cl)CC2)c1 [Example 857] | 89.8 nM
18 | CC(C)C(=O)Nc1cccc(C2CCN(Cc3cccc4c3ccn4-c3cccc(Cl)c3)CC2)c1 [Example 858] | 44.9 nM
19 | Cc1cccc(-n2ccc3c(CN4CCC(c5cccc(NC(=O)C(C)C)c5)CC4)cccc32)c1 [Example 859] | 321 nM
20 | COc1cccc(-n2ccc3cccc(CN4CCC(c5cccc(NC(=O)C(C)C)c5)CC4)c32)c1 [Example 860] | 40.5 nM
21 | CC(C)C(=O)Nc1cccc(C2CCN(Cc3cccc4c3ccn4-c3cccc(C(F)(F)F)c3)CC2)c1 [Example 861] | 94.1 nM
22 | Cc1ccc(-n2ccc3c(CN4CCC(c5cccc(NC(=O)C(C)C)c5)CC4)cccc32)cc1C [Example 862] | 438 nM
23 | CC(C)C(=O)Nc1cccc(C2CCN(Cc3cccc4c3ccn4-c3cc(Cl)cc(Cl)c3)CC2)c1 [Example 863] | 269 nM
24 | CC(C)C(=O)Nc1cccc(C2CCN(Cc3cccc4c3ccn4-c3ccc(Cl)c(Cl)c3)CC2)c1 [Example 864] | 292 nM
25 | CC(C)C(=O)Nc1cccc(C2CCN(Cc3cccc4c3ccn4-c3ccc(F)cc3Cl)CC2)c1 [Example 865] | 94.6 nM
26 | CC(C)C(=O)Nc1cccc(C2CCN(Cc3cccc4c3ccn4-c3ccc(F)cc3F)CC2)c1 [Example 866] | 169 nM
27 | CC(C)C(=O)Nc1cccc(C2CCN(Cc3cccc4ccn(-c5cccnc5)c34)CC2)c1 [Example 867] | 892 nM
28 | CC(C)C(=O)Nc1cccc(C2CCN(Cc3ccc4cc[nH]c4c3)CC2)c1 [Example 868] | 403 nM
29 | CC(C)C(=O)Nc1cccc(C2CCN(Cc3cccc4c3ccn4-c3ccncc3)CC2)c1 [Example 869] | 431 nM
